target: T1, Fatty acid synthase (Homo sapiens, UniProt P49327); experiment: Inhibition of FAS
Target sequence in this assay (P49327 whole entry): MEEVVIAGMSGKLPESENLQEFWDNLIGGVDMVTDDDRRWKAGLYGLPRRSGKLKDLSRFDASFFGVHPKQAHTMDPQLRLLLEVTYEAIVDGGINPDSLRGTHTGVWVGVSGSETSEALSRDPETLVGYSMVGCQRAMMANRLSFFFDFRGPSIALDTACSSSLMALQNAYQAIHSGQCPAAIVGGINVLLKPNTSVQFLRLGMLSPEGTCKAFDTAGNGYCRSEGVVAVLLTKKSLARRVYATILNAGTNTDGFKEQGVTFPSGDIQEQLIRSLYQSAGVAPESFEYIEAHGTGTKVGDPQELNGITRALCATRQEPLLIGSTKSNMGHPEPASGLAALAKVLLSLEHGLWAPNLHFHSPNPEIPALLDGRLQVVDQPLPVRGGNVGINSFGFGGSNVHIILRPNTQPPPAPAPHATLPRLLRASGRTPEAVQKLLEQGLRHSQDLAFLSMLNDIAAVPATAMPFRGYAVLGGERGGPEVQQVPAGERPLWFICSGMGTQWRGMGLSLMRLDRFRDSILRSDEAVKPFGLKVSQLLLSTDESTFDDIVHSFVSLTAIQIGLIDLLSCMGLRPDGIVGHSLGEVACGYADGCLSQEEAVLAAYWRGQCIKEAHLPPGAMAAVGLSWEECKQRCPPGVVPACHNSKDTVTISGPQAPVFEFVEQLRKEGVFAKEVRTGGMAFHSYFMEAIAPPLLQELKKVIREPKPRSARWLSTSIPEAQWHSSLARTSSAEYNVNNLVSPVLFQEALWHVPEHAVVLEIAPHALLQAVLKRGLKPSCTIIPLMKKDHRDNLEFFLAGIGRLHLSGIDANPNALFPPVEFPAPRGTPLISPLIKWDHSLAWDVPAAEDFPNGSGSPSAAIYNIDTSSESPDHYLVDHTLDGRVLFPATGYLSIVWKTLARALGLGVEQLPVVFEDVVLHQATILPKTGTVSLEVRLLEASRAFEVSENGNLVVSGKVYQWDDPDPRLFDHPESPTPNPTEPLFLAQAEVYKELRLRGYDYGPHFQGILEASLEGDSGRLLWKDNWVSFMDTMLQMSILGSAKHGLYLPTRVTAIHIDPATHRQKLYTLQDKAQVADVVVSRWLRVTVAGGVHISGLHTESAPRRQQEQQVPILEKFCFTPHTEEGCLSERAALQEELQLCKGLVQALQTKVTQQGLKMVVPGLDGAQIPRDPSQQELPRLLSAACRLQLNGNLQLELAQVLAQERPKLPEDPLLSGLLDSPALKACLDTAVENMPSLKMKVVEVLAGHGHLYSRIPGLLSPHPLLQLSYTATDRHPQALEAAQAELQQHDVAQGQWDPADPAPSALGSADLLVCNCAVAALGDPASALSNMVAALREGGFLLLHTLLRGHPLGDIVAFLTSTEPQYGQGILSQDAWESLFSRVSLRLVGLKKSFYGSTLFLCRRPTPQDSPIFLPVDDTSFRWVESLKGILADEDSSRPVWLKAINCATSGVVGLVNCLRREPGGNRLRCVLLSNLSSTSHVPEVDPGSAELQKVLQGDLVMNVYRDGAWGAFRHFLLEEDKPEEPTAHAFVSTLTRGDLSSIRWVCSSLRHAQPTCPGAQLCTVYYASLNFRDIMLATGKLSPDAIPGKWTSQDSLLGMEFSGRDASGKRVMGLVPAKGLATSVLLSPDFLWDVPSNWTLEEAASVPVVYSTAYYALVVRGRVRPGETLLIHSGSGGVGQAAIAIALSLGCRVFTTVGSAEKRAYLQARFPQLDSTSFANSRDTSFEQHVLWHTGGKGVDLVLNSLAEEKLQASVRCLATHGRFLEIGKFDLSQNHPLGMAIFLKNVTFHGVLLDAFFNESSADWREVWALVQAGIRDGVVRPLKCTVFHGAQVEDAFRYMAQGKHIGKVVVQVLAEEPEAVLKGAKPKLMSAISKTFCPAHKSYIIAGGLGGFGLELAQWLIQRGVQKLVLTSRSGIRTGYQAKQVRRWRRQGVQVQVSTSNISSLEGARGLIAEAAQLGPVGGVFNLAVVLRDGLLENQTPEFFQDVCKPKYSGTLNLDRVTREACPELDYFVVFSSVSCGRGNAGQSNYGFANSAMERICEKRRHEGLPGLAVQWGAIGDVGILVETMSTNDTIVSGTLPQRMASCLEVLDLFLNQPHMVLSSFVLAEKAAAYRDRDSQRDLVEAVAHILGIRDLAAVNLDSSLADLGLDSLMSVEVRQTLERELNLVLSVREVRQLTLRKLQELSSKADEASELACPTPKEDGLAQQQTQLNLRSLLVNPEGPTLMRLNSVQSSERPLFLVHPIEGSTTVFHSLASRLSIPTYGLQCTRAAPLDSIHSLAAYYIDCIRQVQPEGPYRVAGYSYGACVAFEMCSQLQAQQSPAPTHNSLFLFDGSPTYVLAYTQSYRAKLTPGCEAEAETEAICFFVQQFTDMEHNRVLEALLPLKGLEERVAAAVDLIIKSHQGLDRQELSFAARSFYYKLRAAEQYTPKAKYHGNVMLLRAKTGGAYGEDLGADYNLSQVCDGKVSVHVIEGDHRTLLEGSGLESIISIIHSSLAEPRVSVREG

Which IC50 does the source give for `CCCC(=O)C1=C(O)C(C)(C)C(O)=C(CC2=C(O)C(C)(C)C(O)=C(C(=O)CC)C2=O)C1=O` here?
Its IC50 is 56.1 µM.

Which IC50 does the source give for `CCCC(=O)C1=C(O)C(C)C(O)=C(CC2=C(O)C(C)(C)C(O)=C(C(=O)CC)C2=O)C1=O` (stereo unspecified) here?
Its IC50 is 23.1 µM.

With `CCCC(=O)C1=C(O)CC(O)=C(CC2=C(O)C(C)(C)C(O)=C(C(C)=O)C2=O)C1=O` as the molecule, how does the IC50 read?
The IC50 was 29.7 µM.

`CCC(=O)C1=C(O)C(C)(C)C(O)=C(CC2=C(O)C(C)(C)C(O)=C(C(=O)CC)C2=O)C1=O` was tested. Which IC50 did it give?
The IC50 was 60.2 µM.

For `O=c1cc(-c2ccc(O)c(O)c2)oc2cc(O)cc(O)c12` [LUTEOLIN], which IC50 is on record?
Its IC50 is 62.5 µM.

`CCCC(=O)c1c(O)c(CC2=C(O)C(C)(C)C(O)=C(C(C)=O)C2=O)c(O)c(CC2=C(O)C(C)(C)C(O)=C(C(=O)CC)C2=O)c1O` was tested. Which IC50 did it give?
The IC50 was 31 µM.

Which IC50 does the source give for `CCCC(=O)c1c(O)c(C)c(O)c(Cc2c(O)c(C)c(O)c(C(=O)CCC)c2O)c1O` here?
The IC50 was 25.4 µM.

With `C/C=C/C/C=C/CCC(=O)[C@H]1O[C@H]1C(N)=O` [CERULENIN] as the molecule, how does the IC50 read?
Its IC50 is 13 µM.

`Oc1cc(O)c2c(c1)O[C@H](c1ccc(O)c(O)c1)[C@H](O)C2` [(-)-EPICATECHIN] was tested. Which IC50 did it give?
Its IC50 is greater than 100 µM.

How did the IC50 turn out when `O=c1c(O)c(-c2ccccc2)oc2ccccc12` [FLAVONOL] was run?
The IC50 was greater than 100 µM.

`CCC(=O)C1=C(O)C(C)(C)C(O)=C(CC2=C(O)C(C)(C)C(O)=C(C(C)=O)C2=O)C1=O` was tested. Which IC50 did it give?
Its IC50 is 71.7 µM.

Which IC50 does the source give for `CCCC(=O)C1=C(OC)C(C)C(O)=C(CC2=C(O)C(C)(C)C(O)=C(C(=O)CCC)C2=O)C1=O` (stereo unspecified) here?
The IC50 was 32.6 µM.

With `CCCC(=O)C1=C(O)C(C)C(O)=C(CC2=C(O)C(C)(C)C(O)=C(C(C)=O)C2=O)C1=O` (stereo unspecified) as the molecule, how does the IC50 read?
The IC50 was 28.7 µM.

How did the IC50 turn out when `CCCC(=O)c1c(O)cc(OC)c(C)c1O` was run?
The IC50 was 49.1 µM.

target: T1, Fatty acid synthase; experiment: Inhibition of FAS at 100 uM
Target sequence in this assay (P49327 whole entry, looked up): as the sequence (P49327 whole entry) above

How did the inhibition turn out when `Oc1cc(O)c2c(c1)O[C@H](c1ccc(O)c(O)c1)[C@H](O)C2` [(-)-EPICATECHIN] was run?
The inhibition was 10.2%.

How did the inhibition turn out when `O=c1c(O)c(-c2ccccc2)oc2ccccc12` [FLAVONOL] was run?
Its inhibition is 6.5%.
